In patent publication US6270979A (priority 1998, dated 2001):
Entries after “also recorded” stand apart in the source; their conditions may differ. Counter-ions that a name gives are not always drawn. Like-named read-outs stand apart in the source and are kept apart here.

Key:
opioid μ receptor [1] = target: opioid μ receptor (Homo sapiens, UniProt P35372); assay type: cell-based
[2] = target: epitope-tagged μ opioid receptor (EE-μR) (Rattus norvegicus, UniProt P33535); assay type: cell-based
μ opioid receptor [3] = target: T1, μ opioid receptor (Rattus norvegicus, UniProt P33535); conditions: added acutely, μ and EEμ receptor transfected HEK293 cells
μ opioid receptor [4] = target: T1, μ opioid receptor; assay: Receptor recycling through endocytic vesicles; assay type: cell-based; set-up: expressed in transfected cells
opioid μ receptor [5] = assay type: cell-based, human
Mice = assay type: in vivo
Male ICR mice = conditions: mouse, in vivo
PKA = conditions: known; cited from earlier work
PKC = conditions: known; cited from earlier work
cAMP phosphodiesterase = conditions: generally recognized; Beavo et al.; cited from earlier work
[6] = system: muscarinic m1 receptor mutant m1-E360A; assay type: cell-based
[7] = system: D2 receptor (long splice isoform); assay: D2 receptor cAMP assay in stably transfected HEK293 cells; assay type: cell-based; conditions: for negative antagonism at D2 receptor: preliminary, stably transfected HEK293 cells, quinpirole as agonist
opioid μ receptor [8] = conditions: prior knowledge; cited from earlier work

Chain of opioid μ receptor (Homo sapiens, UniProt P35372) (P35372 whole entry): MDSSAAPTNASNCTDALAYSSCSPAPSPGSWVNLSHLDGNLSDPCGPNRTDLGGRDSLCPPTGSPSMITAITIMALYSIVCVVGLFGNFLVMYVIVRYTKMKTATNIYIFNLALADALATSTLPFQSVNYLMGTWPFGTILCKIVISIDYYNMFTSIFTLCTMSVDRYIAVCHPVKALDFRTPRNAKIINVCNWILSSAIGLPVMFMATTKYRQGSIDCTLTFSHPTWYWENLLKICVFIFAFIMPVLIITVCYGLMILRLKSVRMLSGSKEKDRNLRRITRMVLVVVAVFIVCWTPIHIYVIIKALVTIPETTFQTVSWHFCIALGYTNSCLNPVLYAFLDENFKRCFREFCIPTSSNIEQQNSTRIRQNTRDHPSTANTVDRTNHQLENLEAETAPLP
Chain of epitope-tagged μ opioid receptor (EE-μR) (P33535 whole entry): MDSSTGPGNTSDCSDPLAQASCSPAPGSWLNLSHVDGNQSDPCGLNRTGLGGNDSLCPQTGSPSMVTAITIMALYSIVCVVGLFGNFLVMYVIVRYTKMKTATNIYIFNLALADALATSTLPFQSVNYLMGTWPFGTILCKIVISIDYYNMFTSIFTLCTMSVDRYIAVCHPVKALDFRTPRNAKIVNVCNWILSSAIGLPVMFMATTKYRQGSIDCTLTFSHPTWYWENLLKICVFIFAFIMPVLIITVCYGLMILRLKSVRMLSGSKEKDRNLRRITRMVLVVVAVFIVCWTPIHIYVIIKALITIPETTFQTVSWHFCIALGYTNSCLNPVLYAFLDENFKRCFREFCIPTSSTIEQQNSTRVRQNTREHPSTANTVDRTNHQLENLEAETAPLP
T1 sequence (P33535 whole entry): as above

CC(C)C[C@@H](NC(=O)[C@H](Cc1ccccc1)NC(=O)CNC(=O)[C@@H](C)NC(=O)[C@@H](N)Cc1ccc(O)cc1)C(=O)O [DADLE]
classification of opioid drug (agonist / neutral / negative antagonist) (opioid μ receptor [1]): full agonists and are either as effective if not more so than morphine

C[C@@H](NC(=O)[C@@H](N)Cc1ccc(O)cc1)C(=O)NCC(=O)N(C)[C@@H](Cc1ccccc1)C(=O)NCCO [DAMGO]
classification of opioid drug (agonist / neutral / negative antagonist) (opioid μ receptor [1]): full agonists and are either as effective if not more so than morphine | receptor phosphorylation, potency and efficacy relative to morphine [2]: slightly more potent and efficacious than morphine | signaling, potency and efficacy relative to morphine (μ opioid receptor [3]): slightly more potent and efficacious than morphine | receptor recycling through endocytic vesicles (μ opioid receptor [4]): induced massive receptor recycling through endocytic vesicles

CC1CNCCN1S(=O)(=O)c1cccc2cnccc12.Cl.Cl (centres unmarked) [H7, 1-(5-isoquinolinesulfonyl)-2-methylpiperazine dihydrochloride]
effect on acute depression of cAMP levels by morphine (opioid μ receptor [5]): did not prevent the acute depression of cAMP levels by morphine | effect on spontaneous cAMP overshoot induced by morphine pretreatment (opioid μ receptor [5]): had some effects on the spontaneous cAMP overshoot | effect on naloxone cAMP overshoot / formation of μ* when added with morphine pretreatment (opioid μ receptor [5]; dihydrochloride): abolished the naloxone-induced cAMP overshoot; also recorded: completely prevents the formation of μ* receptors | reversal of naloxone cAMP overshoot / μ* activity when added after morphine pretreatment (opioid μ receptor [5]; dihydrochloride): rapidly reverses μ* activity; also recorded: completely reversed the naloxone cAMP overshoot | analgesia of second morphine dose, after H7 (Mice; mouse, in vivo): 90±10% | effect on morphine antinociception (Mice; mouse, in vivo): without affecting gross behavior of the animals or morphine antinociception | reversal of morphine tolerance (Mice; mouse, in vivo, dihydrochloride): fully reversed morphine tolerance; also recorded: completely reversed tolerance; also recorded: reverse morphine tolerance and dependence in mice | effect on μ receptor (μ*) phosphorylation ([2]; dihydrochloride): strongly inhibits μ receptor phosphorylation; also recorded: inhibited μ* receptor phosphorylation | effect on gross behavior of the animals (Male ICR mice): without affecting gross behavior of the animals | effect on naloxone induced withdrawal jumping (Male ICR mice): strongly suppressed the number of naloxone precipitated jumps | protein kinase inhibition PKA (PKA): known to inhibit several protein kinases including PKA and PKC | protein kinase inhibition PKC (PKC): known to inhibit several protein kinases including PKA and PKC

Cl.Cl.NCCNS(=O)(=O)c1cccc2cnccc12 [H9, N-(2-aminoethyl)-5-isoquinolinesulfonamide dihydrochloride]
effect on naloxone cAMP overshoot / formation of μ* when added with morphine pretreatment (opioid μ receptor [5]): capable of preventing formation of the constitutively active μ receptor state

N=C(N)NCCNS(=O)(=O)c1cccc2cnccc12 [HA-1004, N(2-guanidinoethyl)-5-isoquinolinesulfonamide hydrochloride]
effect on naloxone cAMP overshoot / formation of μ* when added with morphine pretreatment (opioid μ receptor [5]): capable of preventing formation of the constitutively active μ receptor state

CC(C)Cn1c(=O)n(C)c(=O)c2[nH]cnc21 [IBMX, 3-isobutyl-1-methyl-xanthine]
effect on naloxone cAMP overshoot / formation of μ* when added with morphine pretreatment (opioid μ receptor [5]): suppresses μ* formation; also recorded: capable of preventing formation of the constitutively active μ receptor state | effect on μ receptor (μ*) phosphorylation [2]: suppressed μ receptor phosphorylation as observed for H7; also recorded: μ receptor kinase inhibitor; also recorded: inhibited μ* receptor phosphorylation | cAMP phosphodiesterase inhibition (cAMP phosphodiesterase): cAMP phosphodiesterase inhibitor

C=CCN1CC[C@]23c4c5ccc(O)c4O[C@H]2[C@@H](O)C=C[C@H]3[C@H]1C5 [Nalorphine]
classification of opioid drug (agonist / neutral / negative antagonist) (opioid μ receptor [1]): neutral antagonists | effect on cAMP levels / constitutive activity in morphine pretreated cells (opioid μ receptor [1]): no significant effect on cAMP levels in dependent cells

CN1[C@@H]2CC[C@H]1C[C@@H](OC(=O)C(CO)c1ccccc1)C2 (some centres unmarked) [atropine]
effect on m1-E360A basal activity [6]: decreasing effects on m1-E360A basal activity

COC[C@@H]([C@H](O)[C@H](O)C(=O)NCC[C@H](C)c1nc(/C=C/C[C@@H]2O[C@]3(C[C@@H](O)[C@@H]2C)O[C@H]([C@H](C[C@H](O)[C@H](C)[C@H](O)[C@H](C)/C=C(C)/C(C)=C/C=C/C(C)=C\C#N)OC)[C@H](OP(=O)(O)O)C3(C)C)co1)N(C)C [calyculin A]
effect on m1-E360A basal activity ([6]; HEK293 cells): enhanced the basal activity

O=C(CCCN1CCC(O)(c2ccc(Cl)cc2)CC1)c1ccc(F)cc1 [haloperidol]
negative antagonism at D2 receptor [7]: some degree of negative antagonism

CN1CC[C@]23c4c5ccc(O)c4O[C@H]2[C@@H](O)C=C[C@H]3[C@H]1C5 [morphine]
analgesia of second morphine dose, saline control (Mice; 10 mg/kg morphine sulfate 5 hours after 100 mg/kg, 30 minutes after saline): 22±14%

C=CCN1CC[C@]23c4c5ccc(O)c4O[C@H]2C(=O)CC[C@@]3(O)[C@H]1C5 [naloxone]
reversal of morphine dependence (Male ICR mice): does not reverse the dependent state in vivo | withdrawal jumps (Male ICR mice): 77±20 jumps

C=C1[C@@H](O)[C@@H]2O[C@]3(CC[C@H](/C=C/[C@@H](C)[C@@H]4CC(C)=C[C@@]5(O[C@H](C[C@@](C)(O)C(=O)O)CC[C@H]5O)O4)O3)CC[C@H]2O[C@@H]1[C@@H](O)C[C@H](C)[C@H]1O[C@@]2(CCCCO2)CC[C@H]1C [okadaic acid]
effect of phosphatase inhibitor on enhancing μ* (opioid μ receptor [5]): ineffective in enhancing μ*

CN1[C@@H]2C[C@@H](OC(=O)[C@H](CO)c3ccccc3)C[C@H]1[C@@H]1O[C@@H]12 [scopolamine]
classification at m1-E360A [6]: negative antagonists | effect on m1-E360A basal activity [6]: decreasing effects on m1-E360A basal activity

O=C(CCCN1CCC2(CC1)C(=O)NCN2c1ccccc1)c1ccc(F)cc1 [spiperone]
effect on cAMP levels in absence of agonist ([7]; incubation in absence of agonist, relative to control): decreased cAMP levels relative to control | negative antagonism at D2 receptor [7]: some degree of negative antagonism

CCN1CCCC1CNC(=O)c1cc(S(N)(=O)=O)ccc1OC (centres unmarked) [sulpiride]
negative antagonism at D2 receptor [7]: some degree of negative antagonism

OCCN1CCN(CCCN2c3ccccc3Sc3ccc(C(F)(F)F)cc32)CC1 [thuphenazine]
negative antagonism at D2 receptor [7]: some degree of negative antagonism

CN1CCN(CCCN2c3ccccc3Sc3ccc(C(F)(F)F)cc32)CC1 [trifluoperatine]
negative antagonism at D2 receptor [7]: some degree of negative antagonism

D-Phe-Cys-Tyr-D-Trp-Arg-Thr-Pen-Thr-NH2 [CTOP]
classification of opioid drug (agonist / neutral / negative antagonist) (opioid μ receptor [1]): neutral (null) antagonist; also recorded: neutral antagonists | effect on cAMP levels / constitutive activity in morphine pretreated cells (opioid μ receptor [1]): not to reverse the constitutive activity of the μ receptor state; also recorded: does not act as an inverse agonist; also recorded: no effect on the constitutively active μ receptor state; also recorded: do not affect cAMP levels; also recorded: no significant effect on cAMP levels in dependent cells | effect on naloxone cAMP overshoot when combined with naloxone (opioid μ receptor [1]): block the inverse agonist effects of naloxone; also recorded: Reversal of the naloxone cAMP overshoot | effect on acute depression of cAMP levels by morphine (opioid μ receptor [5]): block the acute effects of morphine; also recorded: reversed the reduction of the cAMP level caused by morphine | blockade of acute effects of morphine (previously known) (opioid μ receptor [8]): fully block the acute effects of morphine

D-Phe-Cys-Tyr-D-Trp-Arg-Thr-Pen-ThrNH2 [CTAP]
withdrawal jumps (Male ICR mice): 32±12 jumps
